Test results reported in patent US20230085307A1, “PYRIDAZINONE COMPOUND AND HERBICIDE” (NISSAN CHEMICAL CORPORATION, priority 2019, published 2023).

Tests used:
[1] = test system: false cleavers; test: Test Example 5: herbicidal effect by foliage application, plastic box (Table 20, symbol Q); assay type: in vivo, false cleavers (Galium spurium); details: foliage application, three weeks after application
Summary of the method: (§1)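 Plants sown in sterilized diluvial soil and grown 14 days in a greenhouse at 25° C to 30° C, then sprayed on the foliage with the compound's emulsion diluted in water to a predetermined herbicide amount. Injury to weeds and crops scored three weeks after application on a visual rating scale.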

[2] = test system: wild oat; test: Test Example 5: herbicidal effect by foliage application, plastic box (Table 20, symbol I); assay type: in vivo, wild oat (Avena fatua); details: foliage application, three weeks after application
Summary of the method: as §1

[3] = test system: barnyard grass; test: Test Example 5: herbicidal effect by foliage application, plastic box (Table 20, symbol H); assay type: in vivo, barnyard grass (Echinochloa crus-galli); details: foliage application, three weeks after application
Summary of the method: as §1

[4] = test system: blackgrass; test: Test Example 4: herbicidal effect by soil treatment (Table 19, symbol J); assay type: in vivo, blackgrass (Alopecurus myosuroides)
Summary of the method: (§2)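 Three weeks of greenhouse growth at 25° C. to 30° C. followed a uniform surface spray of water-diluted emulsion at a predetermined herbicide amount. Seeds had been sown beforehand under about 1.5 cm of sterilized diluvial soil. Grading followed criteria set out in an earlier test.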

[5] = test system: redroot pigweed; test: Test Example 4: herbicidal effect by soil treatment (Table 19, symbol N); assay type: in vivo, redroot pigweed (Amaranthus retroflexus)
Summary of the method: as §2

[6] = test system: chickweed; test: Test Example 5: herbicidal effect by foliage application, plastic box (Table 20, symbol P); assay type: in vivo, common chickweed (Stellaria media); details: foliage application, three weeks after application
Summary of the method: as §1

[7] = test system: southern crabgrass; test: Test Example 4: herbicidal effect by soil treatment (Table 19, symbol F); assay type: in vivo, southern crabgrass (Digitaria ciliaris)
Summary of the method: as §2

[8] = test system: false cleavers; test: Test Example 4: herbicidal effect by soil treatment (Table 19, symbol Q); assay type: in vivo, false cleavers (Galium spurium)
Summary of the method: as §2

[9] = test system: barnyard grass; test: Test Example 4: herbicidal effect by soil treatment (Table 19, symbol H); assay type: in vivo, barnyard grass (Echinochloa crus-galli)
Summary of the method: as §2

[10] = test system: velvetleaf; test: Test Example 4: herbicidal effect by soil treatment (Table 19, symbol M); assay type: in vivo, velvetleaf (Abutilon theophrasti)
Summary of the method: as §2

[11] = test system: lambsquarters; test: Test Example 4: herbicidal effect by soil treatment (Table 19, symbol O); assay type: in vivo, lambsquarters (Chenopodium album)
Summary of the method: as §2

[12] = test system: blackgrass; test: Test Example 5: herbicidal effect by foliage application, plastic box (Table 20, symbol J); assay type: in vivo, blackgrass (Alopecurus myosuroides); details: foliage application, three weeks after application
Summary of the method: as §1

[13] = test system: Japanese bulrush; test: Test Example 1: herbicidal activity, application before weed generation under submerged conditions (Table 16, symbol B); assay type: in vivo, Japanese bulrush (Schoenoplectus juncoides)
Summary of the method: (§3)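 Emulsion formulation, water-diluted to set dose, was put onto the flooded surface (4 cm depth, alluvial soil) the same day weeds were sown and 2.5-leaf rice transplanted. After 3 weeks at 25-30 °C under glass, each species was rated 0 (≤5% kill) to 5 (≥90% kill).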

[14] = test system: Chinese sprangletop; test: Test Example 3: herbicidal effect by foliage application, Wagner pot (Table 18, symbol D); assay type: in vivo, chinese sprangletop (Leptochloa chinensis)
Summary of the method: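 Plants were sown in alluvial soil held under 0.1–0.5 cm standing water and grown 14 days in a greenhouse at 25–30 °C. An emulsifiable formulation, water-diluted to the set dose, was then sprayed onto the foliage, and effects were scored three weeks later using previously defined criteria.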

[15] = test system: oval-leafed pondweed; test: Test Example 1: herbicidal activity, application before weed generation under submerged conditions (Table 16, symbol C); assay type: in vivo, oval-leafed pondweed (Monochoria vaginalis)
Summary of the method: as §3

[16] = test system: wild oat; test: Test Example 4: herbicidal effect by soil treatment (Table 19, symbol I); assay type: in vivo, wild oat (Avena fatua)
Summary of the method: as §2

[17] = test system: redroot pigweed; test: Test Example 5: herbicidal effect by foliage application, plastic box (Table 20, symbol N); assay type: in vivo, redroot pigweed (Amaranthus retroflexus); details: foliage application, three weeks after application
Summary of the method: as §1

[18] = test system: velvetleaf; test: Test Example 5: herbicidal effect by foliage application, plastic box (Table 20, symbol M); assay type: in vivo, velvetleaf (Abutilon theophrasti); details: foliage application, three weeks after application
Summary of the method: as §1

[19] = amount of applied herbicide 320 g/ha
[20] = amount of applied herbicide 80 g/ha

| SMILES | Q: false cleavers, herbicidal effect grade ([1]; 320 g/ha) | I: wild oat, herbicidal effect grade ([2]; 320 g/ha) | H: barnyard grass, herbicidal effect grade ([3]; 320 g/ha) | J: blackgrass, herbicidal effect grade [4, 19] | N: redroot pigweed, herbicidal effect grade [5, 19] | P: chickweed, herbicidal effect grade ([6]; 320 g/ha) | F: southern crabgrass, herbicidal effect grade [7, 19] | Q: false cleavers, herbicidal effect grade [8, 19] | H: barnyard grass, herbicidal effect grade [9, 19] | M: velvetleaf, herbicidal effect grade [10, 19] | O: lambsquarters, herbicidal effect grade [11, 19] | J: blackgrass, herbicidal effect grade ([12]; 320 g/ha) | Herbicidal effect, B: Japanese bulrush [13, 19] | herbicidal effect on Chinese sprangletop (D) ([14]; 320 g/ha) | Herbicidal effect, C: oval-leafed pondweed [15, 19] | I: wild oat, herbicidal effect grade [16, 19] | N: redroot pigweed, herbicidal effect grade ([17]; 320 g/ha) | M: velvetleaf, herbicidal effect grade ([18]; 320 g/ha) | further results |
| --- | --- | --- | --- | --- | --- | --- | --- | --- | --- | --- | --- | --- | --- | --- | --- | --- | --- | --- | --- |
| CCCC(=O)Oc1c(C)nn(C)c(=O)c1-c1c(-c2ccccc2OCC)sc2cc(OC)ccc12 [3-071] | 5 (Herbicidal rate of 90% or more (almost completely withered)) | 5 (Herbicidal rate of 90% or more (almost completely withered)) | 5 (Herbicidal rate of 90% or more (almost completely withered)) | 4 (Herbicidal rate of 70% or more and less than 90%) | 4 (Herbicidal rate of 70% or more and less than 90%) | 5 (Herbicidal rate of 90% or more (almost completely withered)) | 4 (Herbicidal rate of 70% or more and less than 90%) | 5 (Herbicidal rate of 90% or more (almost completely withered)) | 3 (Herbicidal rate of 40% or more and less than 70%) | 1 (Herbicidal rate of 5% or more and less than 20%) | 3 (Herbicidal rate of 40% or more and less than 70%) | 5 (Herbicidal rate of 90% or more (almost completely withered)) | 5 (Herbicidal rate of 90% or more (almost completely withered)) | 5 (Herbicidal rate of 90% or more (almost completely withered)) | 5 (Herbicidal rate of 90% or more (almost completely withered)) | 3 (Herbicidal rate of 40% or more and less than 70%) | 5 (Herbicidal rate of 90% or more (almost completely withered)) | 5 (Herbicidal rate of 90% or more (almost completely withered)) |  |
| CCOc1cc(F)ccc1-c1sc2cc(OC)ccc2c1-c1c(O)c(C)nn(C)c1=O [3-078] |  |  |  |  |  |  |  |  |  |  |  |  |  |  |  |  |  |  | Q: false cleavers, herbicidal effect grade ([1]; 80 g/ha): 5 (Herbicidal rate of 90% or more (almost completely withered)); I: wild oat, herbicidal effect grade ([2]; 80 g/ha): 5 (Herbicidal rate of 90% or more (almost completely withered)); H: barnyard grass, herbicidal effect grade ([3]; 80 g/ha): 5 (Herbicidal rate of 90% or more (almost completely withered)); J: blackgrass, herbicidal effect grade [4, 20]: 5 (Herbicidal rate of 90% or more (almost completely withered)); N: redroot pigweed, herbicidal effect grade [5, 20]: 3 (Herbicidal rate of 40% or more and less than 70%); P: chickweed, herbicidal effect grade ([6]; 80 g/ha): 5 (Herbicidal rate of 90% or more (almost completely withered)); F: southern crabgrass, herbicidal effect grade [7, 20]: 4 (Herbicidal rate of 70% or more and less than 90%); Q: false cleavers, herbicidal effect grade [8, 20]: 5 (Herbicidal rate of 90% or more (almost completely withered)); H: barnyard grass, herbicidal effect grade [9, 20]: 0 (Herbicidal rate of 5% or less (almost no effect)); M: velvetleaf, herbicidal effect grade [10, 20]: 0 (Herbicidal rate of 5% or less (almost no effect)); O: lambsquarters, herbicidal effect grade [11, 20]: 4 (Herbicidal rate of 70% or more and less than 90%); J: blackgrass, herbicidal effect grade ([12]; 80 g/ha): 4 (Herbicidal rate of 70% or more and less than 90%); Herbicidal effect, B: Japanese bulrush [13, 20]: 5 (Herbicidal rate of 90% or more (almost completely withered)); herbicidal effect on Chinese sprangletop (D) ([14]; 80 g/ha): 3 (Herbicidal rate of 40% or more and less than 70%); Herbicidal effect, C: oval-leafed pondweed [15, 20]: 4 (Herbicidal rate of 70% or more and less than 90%); I: wild oat, herbicidal effect grade [16, 20]: 0 (Herbicidal rate of 5% or less (almost no effect)); N: redroot pigweed, herbicidal effect grade ([17]; 80 g/ha): 5 (Herbicidal rate of 90% or more (almost completely withered)); M: velvetleaf, herbicidal effect grade ([18]; 80 g/ha): 5 (Herbicidal rate of 90% or more (almost completely withered)) |
| CCCC(=O)Oc1c(C)nn(C)c(=O)c1-c1c(-c2ccc(F)cc2OCC)sc2cc(OC)ccc12 [3-079] | 5 (Herbicidal rate of 90% or more (almost completely withered)) | 5 (Herbicidal rate of 90% or more (almost completely withered)) | 5 (Herbicidal rate of 90% or more (almost completely withered)) | 2 (Herbicidal rate of 20% or more and less than 40%) | 4 (Herbicidal rate of 70% or more and less than 90%) | 5 (Herbicidal rate of 90% or more (almost completely withered)) | 4 (Herbicidal rate of 70% or more and less than 90%) | 4 (Herbicidal rate of 70% or more and less than 90%) | 0 (Herbicidal rate of 5% or less (almost no effect)) | 3 (Herbicidal rate of 40% or more and less than 70%) | 3 (Herbicidal rate of 40% or more and less than 70%) | 4 (Herbicidal rate of 70% or more and less than 90%) | 5 (Herbicidal rate of 90% or more (almost completely withered)) | 4 (Herbicidal rate of 70% or more and less than 90%) | 5 (Herbicidal rate of 90% or more (almost completely withered)) | 0 (Herbicidal rate of 5% or less (almost no effect)) | 4 (Herbicidal rate of 70% or more and less than 90%) | 5 (Herbicidal rate of 90% or more (almost completely withered)) |  |
| COc1ccc2c(-c3c(O)c(C)nn(C)c3=O)c(-c3ccc4c(c3)OCCO4)sc2c1 [3-082] | 5 (Herbicidal rate of 90% or more (almost completely withered)) | 0 (Herbicidal rate of 5% or less (almost no effect)) | 3 (Herbicidal rate of 40% or more and less than 70%) | 0 (Herbicidal rate of 5% or less (almost no effect)) | 3 (Herbicidal rate of 40% or more and less than 70%) | 5 (Herbicidal rate of 90% or more (almost completely withered)) | 0 (Herbicidal rate of 5% or less (almost no effect)) | 5 (Herbicidal rate of 90% or more (almost completely withered)) | 0 (Herbicidal rate of 5% or less (almost no effect)) | 0 (Herbicidal rate of 5% or less (almost no effect)) | 0 (Herbicidal rate of 5% or less (almost no effect)) | 1 (Herbicidal rate of 5% or more and less than 20%) | 5 (Herbicidal rate of 90% or more (almost completely withered)) | 3 (Herbicidal rate of 40% or more and less than 70%) | 4 (Herbicidal rate of 70% or more and less than 90%) | 0 (Herbicidal rate of 5% or less (almost no effect)) | 5 (Herbicidal rate of 90% or more (almost completely withered)) | 3 (Herbicidal rate of 40% or more and less than 70%) |  |
